Results: US20220227758A1, “IMIDAZOPYRIDINE COMPOUND AS IRAK4 INHIBITOR” (MEDSHINE DISCOVERY INC., priority 2019, published 2022)

Columns and labels:
[1] = molecular target: T1, human IRAK4 (Homo sapiens, UniProt Q9NWZ3); assay: 33P-labeled kinase activity assay (in vitro enzymatic activity evaluation); type: biochemical
T1 construct: purchased Reaction Biology Corp
T1 sequence (Q9NWZ3 1-460): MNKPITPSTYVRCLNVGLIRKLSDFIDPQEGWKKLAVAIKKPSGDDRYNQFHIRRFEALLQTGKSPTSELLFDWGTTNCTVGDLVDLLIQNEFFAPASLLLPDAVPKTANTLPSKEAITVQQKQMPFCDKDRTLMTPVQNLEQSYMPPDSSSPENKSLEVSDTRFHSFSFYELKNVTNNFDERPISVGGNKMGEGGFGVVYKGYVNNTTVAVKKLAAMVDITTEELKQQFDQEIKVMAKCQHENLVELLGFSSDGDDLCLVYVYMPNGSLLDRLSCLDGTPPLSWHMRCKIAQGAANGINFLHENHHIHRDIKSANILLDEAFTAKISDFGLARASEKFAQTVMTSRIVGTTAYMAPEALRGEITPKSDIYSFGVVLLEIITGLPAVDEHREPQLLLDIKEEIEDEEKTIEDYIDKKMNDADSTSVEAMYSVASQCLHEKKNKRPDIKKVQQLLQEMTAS
Procedure: The inhibitory activity of the test compounds against human IRAK4 was evaluated by determining IC50 values in a ^33P-labeled kinase activity assay (Reaction Biology Corp).
Buffer conditions: 20 mM Hepes (pH 7.5), 10 mM MgCl2, 1 mM EGTA, 0.02% Brij35, 0.02 mg/mL BSA, 0.1 mM Na3VO4, 2 mM DTT, 1% DMSO.
Procedures: The test compound was dissolved in DMSO at room temperature to prepare a 10 mM solution for later use. The substrates were dissolved in freshly formulated buffers. The kinase was added, and mixture was stirred homogeneously. The DMSO solution containing the test compound was added to the above mixed reaction system by an acoustic technique (Echo 550). After 15 minutes of incubation, the reaction was started by adding ^33P-ATP. After 120 minutes of reaction at room temperature, the resulting solution was loaded on P81 ion exchange chromatography paper sheet (Whatman #3698-915). After repeated washings with 0.75% phosphoric acid solution, the radioactivity of the phosphorylated substrate residue on the paper sheet was measured. The kinase activity data are shown as a comparison of the kinase activity of the test compound and the kinase activity of the blank (DMSO only) and a curve was fitted using Prism4 software (GraphPad) to give IC50 values, with the experimental results shown in Table 5.

[2] = system: THP-1 cells; assay: cells; details: Homo sapiens, THP-1, 18 h, read-out: THP-1/IC50
Procedure: TNF-α ELISA in THP-1 cells
THP-1 human acute […] leukemia cells were purchased from ATCC (Cat # TIB-202) and incubated in a5% CO2 incubator at 37° C. The medium was RPMI1640 (Gibco, Cat # 22400-105), the supplementary was 10% FBS (Gibco, Cat # 10091148); 1% PenStrep (Gibco, Cat # 15140); 0.05 mM 2-mercaptoethanol (Sigma, Cat # M6250).
TNF-α content in the cell culture supernatant was measured by a TNF-α Elisa kit. TNF-α was produced by stimulation of THP-1 cells with 150 ng/mL LPS (Sigma, Cat # L6529). Normal THP-1 cells in logarithmic phase were seeded in 96-well plates (Corning #3599) at a certain concentration (1×10^5/100 μL) and then incubated in an incubator. After two hours, 16.7 μL of test compound of different concentrations (8×final concentration) was added and the mixture was incubated in the incubator. After one hour, 16.7 μL of 1200 ng/mL LPS was added and the mixture was incubated in the incubator. After 18 h, the culture was centrifuged and the probe of the supernatant was collected. The TNF-α content was measured by a TNF-α Elisa kit. Finally, the OD signals (OD450-OD570) were read on an envision plate reader.
The OD450-OD570 signals were converted to percent inhibition.
Inhibition%=(ZPE−sample)/(ZPE−HPE)×100.
“HPE” represents the OD450-OD570 signal value of the control well without LPS-stimulated cells, and “ZPE” represents the OD450-OD570 signal value of the control well with LPS-stimulated cells.
IC50 values for compounds were calculated by XLFit in the Excel.
Equation:y=Bottom+(Top-Bottom)/(1+(IC50/X)^ HillSlope).

[3] = system: collagen-induced arthritis; assay: In vivo efficacy assay of collagen-induced mouse arthritis; set-up: species or system DBA/1 mice; details: 100 mg/kg twice daily for 14 days, oral gavage
Procedure: The purpose of this experiment was to investigate the therapeutic effect of compound WX005 in a mouse model of collagen-induced arthritis.
Animals: male DBA/1 mice aged 6-8 weeks; supplier: Vital River.
Grouping: Among 39 DBA/1 mice, 5 mice were randomly selected as normal controls, and the other 34 were immunized. The day of the first immunization was recorded as Day 0. During modeling, DBA/1 mice were anesthetized with isoflurane and sensitized by injecting 50 microliters of prepared collagen emulsion (containing 200 micrograms of CII) subcutaneously on the tail (2-3 cm from the root of the tail). On Day 23, 100 microliters of 0.3 mg/mL LPS solution (containing 30 micrograms of LPS) was intraperitoneally injected. Mice in the normal group were not immunized.
On Day 26, when the average clinical score reached about 0.8, 24 mice with clinical scores of 0-1 were selected, and the mice were randomly grouped into 3 treatment groups of 8 according to the body weight and the score. […]
Clinical observation: the general health and body weight changes of DBA/1 mice were observed daily from 7 days before immunization to Day 23 after immunization (recorded once weekly). After Day 23, mice were observed daily for health, morbidity, and weight changes (recorded at least three times a week) until the end of assay. […]

[4] = system: human B-cell lymphoma OCI-LY10 cells subcutaneous xenograft tumor; assay: In vivo pharmacodynamic study in OCI-LY10 subcutaneous xenograft tumor mouse model; details: WX005 50 mpk, ibrutinib 10 mpk; for T/C value / TGI value: day 18 after start of administration, WX005 + ibrutinib 50+10 mpk
Procedure: The purpose of this experiment was to evaluate the efficacy of test drug WX005 on human B-cell lymphoma OCI-LY10 cell subcutaneous xenograft tumors in a CB17 SCID mouse model in vivo.
OCI-LY10 human B cell lymphoma cells, cultured in a 5% CO2 incubator at 37° C.
OCI-LY10 tumor cells were subcultured. 0.2 mL (1×10^7 cells) of OCI-LY10 cells (along with matrigel in a volume ratio of 1:1) was subcutaneously inoculated on the right back of each […], and the mice were administered in groups when the average tumor volume was 167 mm^3. Animals were monitored daily for health and death, and routine examinations include observation of the effect of tumor growth and drug treatment on the daily performance of the animals, such as behavioral activities, food and water intake, weight changes (twice weekly), tumor size (twice weekly for tumor volume), appearance signs, or other abnormal conditions.
The experimental indices were to investigate whether tumor growth was inhibited or delayed or the tumor was cured. The procedures comprised measuring tumor volume (TV), and calculating the tumor inhibiting therapeutic effect TGI (%) or relative tumor proliferation rate T/C (%) of the compound. TV=0.5a×b^2, where a and b represent the long diameter and short diameter of the tumor, respectively.
T/C%=TRTV/CRTV×100% (TRTV: RTV of treatment group; CRTV: RTV of negative control group). Relative tumor volume (RTV) was calculated based on the results of tumor measurement. The calculation formula was: RTV=Vt/V0, wherein Vo was the average tumor volume measured at the time of grouping and administration (i.e., d0), Vt was the average tumor volume at a certain measurement, and the data of TRTV and CRTV were obtained on the same day.

[5] = system: lipopolysaccharide (LPS)-induced TNF-α secretion; assay: Pharmacodynamic study of LPS-induced TNF-α secretion in SD rats; type: in vivo; details: oral
Procedure: SD rats were orally administered with a solvent, dexamethasone (DEX, 0.5 mg/kg) as positive control, and the test compound, and were intraperitoneally injected with LPS (1 mg/kg) 0.5 hours after the administration. Animals were euthanized with CO2 2 h after LPS injection. Cardiac blood was collected into EDTA-K2 vacutainers, and a part of the anticoagulated blood was centrifuged and the plasma was frozen at −80° C.
Frozen plasma was thawed at room temperature and the concentration of TNF-α in the plasma was measured using ELISA kit.
The experimental data were expressed using mean±SEM, and TNF-α levels were analyzed by One-way ANOVA. Significant differences were considered for p<0.05.

Row | IC50 [1] | Compound | further results
1 | 3.6 nM | CC(C)(O)CCc1cn2cc(NC(=O)c3cccc(C(F)(F)F)n3)c(C3CC3)cc2n1 [WX013] | 
2 | 1.7 nM | CCOc1cc2nc(CCC(C)(C)O)cn2cc1NC(=O)c1cccc(C(F)(F)F)n1 [WX014] | 
3 | 0.7 nM | CC(C)(O)CCc1cn2cc(NC(=O)c3cccc(C(F)(F)F)n3)c(N3CCC(C)(O)CC3)cc2n1 [WX015] | IC50 [2]: 201 nM
4 | 1.2 nM | CC(C)(O)CCc1cn2cc(NC(=O)c3cccc(C(F)(F)F)n3)c(N3CCC(C(N)=O)CC3)cc2n1 [WX016] | IC50 [2]: 181 nM
5 | 1.3 nM | CC(C)(O)CCc1cn2cc(NC(=O)c3cccc(C(F)(F)F)n3)c(N3CCC(CN)CC3)cc2n1 [WX017] | 
6 | 9.8 nM | CC1(O)CCN(c2cc3nc(CCC(=O)O)cn3cc2NC(=O)c2cccc(C(F)(F)F)n2)CC1 [WX018] | 
7 | 19.4 nM | NC(=O)C1CCN(c2cc3nc(CCC(=O)O)cn3cc2NC(=O)c2cccc(C(F)(F)F)n2)CC1 [WX019] | 
8 | 20.5 nM | NCC1CCN(c2cc3nc(CCC(=O)O)cn3cc2NC(=O)c2cccc(C(F)(F)F)n2)CC1 [WX020] | 
9 | 7.1 nM | O=C(O)CCc1cn2cc(NC(=O)c3cccc(C(F)(F)F)n3)c(N3CCC(CO)CC3)cc2n1 [WX021] | 
10 | 1.3 nM | CS(=O)(=O)CCc1cn2cc(NC(=O)c3cccc(C(F)(F)F)n3)c(N3CCC(O)CC3)cc2n1 [WX023] | 
11 | 0.5 nM | CC1(O)CCN(c2cc3nc(CCS(C)(=O)=O)cn3cc2NC(=O)c2cccc(C(F)(F)F)n2)CC1 [WX025] | 

The remaining lines, values behind:

Row | Compound | IC50 [1] | further results
12 | CC(C)(O)CCc1cn2cc(NC(=O)c3cccc(C(F)(F)F)n3)c(N3CCOCC3)cc2n1 [WX001] | 2.2 nM | 
13 | CC(C)(O)CCc1cn2cc(NC(=O)c3cccc(C(F)(F)F)n3)c(C(C)(C)O)cc2n1 [WX002] | 0.4 nM | IC50 [2]: 54 nM
14 | CC(C)(O)CCc1cn2cc(NC(=O)c3cccc(C(F)(F)F)n3)c(N3CCCCC3)cc2n1 [WX003] | 1.2 nM | 
15 | CC(=O)N1CCN(c2cc3nc(CCC(C)(C)O)cn3cc2NC(=O)c2cccc(C(F)(F)F)n2)CC1 [WX004] | 4.6 nM | 
16 | CC(C)(O)CCc1cn2cc(NC(=O)c3cccc(C(F)(F)F)n3)c(N3CCC(O)CC3)cc2n1 [WX005] | 1.3 nM | body weight of the mice [3]: increased steadily; clinical score of arthritis (efficacy) [3]: excellent efficacy; tolerability (body weight, abnormality) in tumor-bearing mice ([4]; 18 days of treatment): good tolerability in animals; T/C value [4]: 53%; TGI value [4]: 66%; IC50 [2]: 114 nM; inhibitory effect on LPS-induced TNF-α secretion (plasma TNF-α) ([5]; LPS 1 mg/kg i.p. 0.5 h after administration, plasma 2 h after LPS): significant inhibitory effect; potency on LPS-induced TNF-α secretion compared with dexamethasone ([5]; WX005 30 mpk vs dexamethasone (DEX) 0.5 mpk): potency equivalent to that of dexamethasone; dose-response of inhibition of LPS-induced TNF-α secretion ([5]; doses 3 mpk, 10 mpk, 30 mpk): clear dose-response relationship
17 | CC(C)(O)CCc1cn2cc(NC(=O)c3cccc(C(F)(F)F)n3)c(N3CCCC(O)C3)cc2n1 (stereo not shown) [WX006] | 3.8 nM | 
18 | CC(C)(O)CCc1cn2cc(NC(=O)c3cccc(C(F)(F)F)n3)c(N3CCC(CO)CC3)cc2n1 [WX007] | 0.9 nM | 
19 | CC(C)(O)CCc1cn2cc(NC(=O)c3cccc(C(F)(F)F)n3)c(N3CCNCC3)cc2n1 [WX008] | 1.5 nM | 
20 | COC(=O)N1CCN(c2cc3nc(CCC(C)(C)O)cn3cc2NC(=O)c2cccc(C(F)(F)F)n2)CC1 [WX010] | 4.6 nM | 
21 | C=CC(=O)N1CCC[C@@H](n2nc(-c3ccc(Oc4ccccc4)cc3)c3c(N)ncnc32)C1 [ibrutinib, reference compound] |  | T/C value [4]: 39%; TGI value [4]: 85%
